Laboratory results reported in patent US20100323950A1, “USE OF BETA-MELANOTROPIN AS A THERAPEUTIC AGENT, EG FOR THE TREATMENT OF AIDS OR ALZHEIMER” (priority 2007, published 2010).

Tested on: drug-resistant Mycobacterium tuberculosis
Settings: Mycobacterium tuberculosis resistant to PAS, streptomycin, INH; peptide 10 micrograms per ml; seven days

CSCC[C@H](NC(=O)[C@H](CCCNC(=N)N)NC(=O)[C@H](Cc1ccc(O)cc1)NC(=O)[C@@H]1CCCN1C(=O)CNC(=O)[C@H](CCC(=O)O)NC(=O)[C@H](CC(=O)O)NC(=O)[C@H](CCCCN)NC(=O)[C@H](CCCCN)NC(=O)[C@H](CCC(=O)O)NC(=O)[C@H](C)N)C(=O)N[C@@H](CCC(=O)O)C(=O)N[C@@H](Cc1c[nH]cn1)C(=O)N[C@@H](Cc1ccccc1)C(=O)N[C@@H](CCCNC(=N)N)C(=O)N[C@@H](Cc1c[nH]c2ccccc12)C(=O)NCC(=O)N[C@@H](CO)C(=O)N1CCC[C@H]1C(=O)N1CCC[C@H]1C(=O)N[C@@H](CCCCN)C(=O)N[C@@H](CC(=O)O)C(=O)O [Beta MSH]
% inhibition: 0.0%
